Assay results as given in patent US8080370B2, “Screening method for prophylactic and/or therapeutic agent for disease accompanied by hepatitis C” (Osaka University, priority 2006, dated 2011).

System: SREBP-1c promoter
Experiment: SREBP-1c promoter dual luciferase reporter assay in HEK293T cells with RXRα/LXRα ligands
Assay type: cell-based, human
Settings: ligand(s) in culture solution for 24 hours, firefly relative to Renilla luciferase
Description: A genome DNA fragment coding the SREBP-1c promoter region (located in residues −410 to +24 base region) from mouse genome was amplified, and the resulting fragment was inserted into KpnI and HindIII sites in pGL3-Basic (manufactured by Promega Corporation), to give pGL3-SREBP-1cPro (FIG. 4a).
Human embryonic kidney cells (HEK293T: cell expressing endogenous […] ) were transformed with the control plasmid coding pGL3-srebp-1cPro and Renilla luciferase (manufactured by Promega Corporation) and together with any one plasmid of (i) vacant plasmid, (ii) plasmid coding the HCV core protein, (iii) plasmid coding RXRα and LXRα, and (iv) plasmid coding RXRα, LXRα and the HCV core protein. The transformant obtained was cultivated in a culture solution containing a RXRα's ligand 9-cis-retinoic acid (9cisRA; product of Sigma Corporation), a LXRα's ligand 22(R)-hydroxycholesterol (22(R)HC), or both of them as additives for 24 hours, and then, the cells were collected; the luciferase activity of the cells was determined, similarly to (1) above, by using the dual luciferase reporter assay system (manufactured by Promega Corporation).

Molecule: 9-cis-retinoic acid
- SREBP-1c promoter activity by the HCV core protein (luciferase activity): increase in SREBP-1c promoter activity

Molecule: CC(C)CC[C@@H](O)[C@@H](C)[C@H]1CC[C@H]2[C@@H]3CC=C4C[C@@H](O)CC[C@]4(C)[C@H]3CC[C@]12C [22(R)-hydroxycholesterol]
- SREBP-1c promoter activity by the HCV core protein (luciferase activity): increase in SREBP-1c promoter activity
